Data set [1] concerns the target muscle (α1)2βγδ nAChR subtype (Torpedo marmorata, UniProt P02711+Q6S3H8+Q6S3H9). To be noted: antagonistic activity, TEVC; value (95% CI); read-out: nAChR subtype (nM; 95% CI) α12β1γδ (Torpedo); cited from earlier work.
In data set [2] the target is T1, human α7 nAChR subtype (Homo sapiens, UniProt P36544).
T1 construct: expressed in transfected cells; host or cells: Xenopus laevis oocytes injected with mRNA
To be noted: antagonistic activity, TEVC; value (95% CI); cited from earlier work.

The target of the next data set is α4β2 nAChR (Homo sapiens, UniProt P17787+P43681). To be noted: antagonistic activity, TEVC; value (95% CI); read-out: nAChR subtype (nM; 95% CI) α4β2 (human); cited from earlier work.
Data set [3] addresses T1, human α7 nAChR subtype. As to the kind of experiment: Two-electrode voltage clamp electrophysiology on Xenopus laevis oocytes expressing the α7 nAChR. Type of data set: cell-based. An excerpt: The emerging cyclic imines toxins (CiTXs) of global distribution across coastal environments that are produced by dinoflagellates move fast up the human food chain through shellfish. The CiTX family includes 44 compounds: 7 gymnodimines (A-E, 12-methylgymnodimine and 16-desmethyl gymnodimine D), 16 spirolides (A-D, G-I, 13-desmethyl spirolide-C, 27-Hydroxy-13-desmethyl spirolide-C, 13,19-didesmethyl spirolide-C, 20-hydroxy-13,19-didesmethyl spirolide- C, 27-hydroxy-13,19-spirolide-C, 27-Oxo-13,19-didesmethyl spirolide-C, 13-desmethyl spirolide-D, 20-hydroxy-13,19-didesmethyl spirolide-D and 20-methyl spirolide-G), 8 pinnatoxins (A-H), 3 pteriatoxins (A-C), 6 prorocentrolides (A-B, 4- hydroxyprorocentrolide, 9,51-dihydro prorocentrolide, 30-sulfate prorocentrolide and 14-O-acetyl-4-hydroxyprorocentrolide), 1 spiroprorocentrimine, 2 portimines (A and B), and 1 kabirimine, (Aráoz et al. (2020) Cyclic imine toxins survey in coastal european shellfish samples: Bioaccumulation and mode of action of 28-O-palmitoyl ester of pinnatoxin-G. First report of portimine-A bioaccumulation. Harmful Algae, 98 [1]). The spiroimine moiety is the major feature characterizing cyclic imine toxins. The exception to this rule is prorocentrolides in which a hexahydroisoquinoline group replaces the spiroimine motif, (Torigoe et al. (1988) Prorocentrolide, a toxic nitrogenous macrocycle from a marine dinoflagellate, Prorocentrum-lima. Journal of the American Chemical Society, 110:7876-7877 [2]). Portimines display a 5-membered cyclic imine ring; gymnodimines, prorocentrolides, spiroprorocentrimines and kabirimine present a 6-membered imine ring, while spirolides, pinnatoxins and pteriatoxins display a 7-membered imine ring. Cyclic imine toxins are fast acting neurotoxins that, when administered intraperitoneally or by gavage at lethal doses, kill mice by respiratory arrest within minutes following blockade of neuromuscular nicotinic acetylcholine receptors (nAChR). The mode of action of several cyclic imines on nAChRs has been characterized, namely: gymnodimine-A, 13- desmethyl spirolide- C, 13,19-didesmethyl spirolide-C, 20-methyl spirolide-G, pinnatoxin-A, pinnatoxin-G, prorocentrolide-A and portimine, (Lamoise et al. (2017) Physico-chemical and functional characterization of portimine purified from Vulcanodinium rugosum strain IFR-VRU-01. In "Marine and Fresh-Water Harmful Algae". Proceedings of the 17th International Conference on Harmful Algae (Proença, L.A.O. and Hallegraeff, G. eds) pp. 126-129 ISSHA and IOC/UNESCO, Florianapolis; Molgó et al. (2017) Cyclic imine toxins from dinoflagellates: a growing family of potent antagonists of the nicotinic acetylcholine receptors. Journal of Neurochemistry, 142:41-51 [4]). They are potent antagonists of muscular and neuronal nicotinic acetylcholine receptors with pinnatoxin-A displaying picomolar affinities towards the α7 nicotinic acetylcholine receptor subtype (Aráoz et al. (2011) Total synthesis of pinnatoxins A and G and revision of the mode of action of pinnatoxin A. Journal of the American Chemical Society 133(27):10499-10511 [5]). In contrast, prorocentrolide and portimine show micromolar affinities towards the α7 nicotinic acetylcholine receptor subtype (Lamoise et al. (2017), Stivala et al. (2015) Synthesis and biology of cyclic imine toxins, an emerging class of potent, globally distributed marine toxins. Natural Product Reports, 32(3):411-435 [6]) (Table1). Table 1. Antagonistic activity of CiTX (Two-Electrodes Voltage Clamp electrophysiology).
• Figure 1 represents the chemical structure of ingrilimine according to compound (Illa) formula. • Figure 2 represents the cytotoxic activity of ingrilimine. A2780 ovarian and HT29 colorectal carcinoma cells were grown in RPMI 1640 supplemented with 10% fetal calf serum (FCS) and 1% glutamine. […]

The test system of data set [4] is 3T3, L929, 4T1 and Caco-2 cells. To be noted: normal cell lines 3T3 and L929, tumor cell line 4T1, Caco-2 cells; cited from earlier work.
In another data set the test system is cancer cell lines. To be noted: literature (Tang et al. 2023; Fribley et al. 2019); cited from earlier work.
In a further data set the test system is P338 leukemia cell line. To be noted: mouse P338 leukemia cell line; cited from earlier work.

muscle (α1)2βγδ nAChR subtype, sequence (P02711 25-461): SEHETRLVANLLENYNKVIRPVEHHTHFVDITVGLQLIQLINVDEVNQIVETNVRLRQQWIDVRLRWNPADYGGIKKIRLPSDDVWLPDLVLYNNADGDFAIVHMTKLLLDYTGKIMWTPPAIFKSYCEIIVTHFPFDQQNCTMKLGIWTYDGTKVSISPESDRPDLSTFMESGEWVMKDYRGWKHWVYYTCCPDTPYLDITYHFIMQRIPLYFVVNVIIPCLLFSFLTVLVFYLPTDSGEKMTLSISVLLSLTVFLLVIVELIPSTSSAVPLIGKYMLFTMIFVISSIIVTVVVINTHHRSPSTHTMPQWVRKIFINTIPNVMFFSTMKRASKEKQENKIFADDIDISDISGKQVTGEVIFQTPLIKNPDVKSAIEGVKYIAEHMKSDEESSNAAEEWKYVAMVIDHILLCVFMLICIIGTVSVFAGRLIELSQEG
muscle (α1)2βγδ nAChR subtype, sequence (Q6S3H9 entry or part of it): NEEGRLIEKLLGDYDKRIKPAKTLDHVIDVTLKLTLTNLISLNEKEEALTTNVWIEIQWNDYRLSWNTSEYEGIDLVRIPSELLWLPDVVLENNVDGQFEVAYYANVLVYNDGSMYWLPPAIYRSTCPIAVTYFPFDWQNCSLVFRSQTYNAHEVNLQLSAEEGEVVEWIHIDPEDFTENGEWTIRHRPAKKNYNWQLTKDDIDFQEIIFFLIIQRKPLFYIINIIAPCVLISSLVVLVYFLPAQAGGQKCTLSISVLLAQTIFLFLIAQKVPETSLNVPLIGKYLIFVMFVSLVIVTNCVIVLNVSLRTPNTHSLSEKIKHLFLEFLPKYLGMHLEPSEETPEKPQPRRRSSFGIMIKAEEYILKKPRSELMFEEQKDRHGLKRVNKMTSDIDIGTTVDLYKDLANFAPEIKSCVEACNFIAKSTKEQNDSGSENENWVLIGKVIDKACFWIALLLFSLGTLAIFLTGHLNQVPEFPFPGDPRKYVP
muscle (α1)2βγδ nAChR subtype, sequence (Q6S3H8 entry or part of it): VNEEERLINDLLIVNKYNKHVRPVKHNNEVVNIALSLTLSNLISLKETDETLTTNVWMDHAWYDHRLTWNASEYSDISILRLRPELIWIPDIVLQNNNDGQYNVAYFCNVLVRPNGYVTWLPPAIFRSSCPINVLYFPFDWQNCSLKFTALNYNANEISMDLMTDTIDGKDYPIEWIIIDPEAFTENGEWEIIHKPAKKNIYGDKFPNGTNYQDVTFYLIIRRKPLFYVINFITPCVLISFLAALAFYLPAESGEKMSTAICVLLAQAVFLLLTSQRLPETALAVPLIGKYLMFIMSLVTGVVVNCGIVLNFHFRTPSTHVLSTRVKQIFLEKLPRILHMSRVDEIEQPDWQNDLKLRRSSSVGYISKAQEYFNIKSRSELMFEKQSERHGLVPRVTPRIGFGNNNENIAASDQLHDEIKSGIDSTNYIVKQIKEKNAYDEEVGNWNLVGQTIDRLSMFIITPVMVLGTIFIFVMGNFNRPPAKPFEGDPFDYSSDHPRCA
muscle (α1)2βγδ nAChR subtype, sequence (Q6S3I0 entry or part of it, further chain): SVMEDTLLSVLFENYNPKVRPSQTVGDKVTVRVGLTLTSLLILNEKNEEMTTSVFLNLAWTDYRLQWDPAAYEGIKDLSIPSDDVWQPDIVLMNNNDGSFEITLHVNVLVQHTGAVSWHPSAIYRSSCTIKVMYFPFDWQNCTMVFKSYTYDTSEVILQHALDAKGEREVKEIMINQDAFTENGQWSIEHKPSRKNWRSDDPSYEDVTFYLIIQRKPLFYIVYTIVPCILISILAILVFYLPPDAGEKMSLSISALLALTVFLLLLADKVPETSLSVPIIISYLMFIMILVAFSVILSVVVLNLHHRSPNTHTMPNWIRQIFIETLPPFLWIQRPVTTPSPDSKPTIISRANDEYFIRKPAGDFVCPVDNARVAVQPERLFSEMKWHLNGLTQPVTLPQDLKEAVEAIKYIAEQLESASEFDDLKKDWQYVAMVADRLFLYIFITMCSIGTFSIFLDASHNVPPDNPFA
T1 sequence (P36544 23-502): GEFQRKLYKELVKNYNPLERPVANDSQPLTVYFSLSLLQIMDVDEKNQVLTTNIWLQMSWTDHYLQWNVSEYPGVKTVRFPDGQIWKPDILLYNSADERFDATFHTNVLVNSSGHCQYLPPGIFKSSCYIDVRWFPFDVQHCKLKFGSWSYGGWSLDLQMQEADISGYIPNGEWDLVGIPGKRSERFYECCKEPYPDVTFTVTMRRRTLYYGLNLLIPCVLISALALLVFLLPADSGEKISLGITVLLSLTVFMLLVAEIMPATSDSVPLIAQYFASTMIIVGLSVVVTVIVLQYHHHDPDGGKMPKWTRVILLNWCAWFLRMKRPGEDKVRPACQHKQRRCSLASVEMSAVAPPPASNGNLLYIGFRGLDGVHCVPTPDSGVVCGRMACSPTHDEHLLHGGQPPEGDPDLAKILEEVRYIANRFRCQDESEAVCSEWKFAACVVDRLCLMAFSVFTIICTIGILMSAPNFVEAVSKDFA
α4β2 nAChR, sequence (P43681 29-627): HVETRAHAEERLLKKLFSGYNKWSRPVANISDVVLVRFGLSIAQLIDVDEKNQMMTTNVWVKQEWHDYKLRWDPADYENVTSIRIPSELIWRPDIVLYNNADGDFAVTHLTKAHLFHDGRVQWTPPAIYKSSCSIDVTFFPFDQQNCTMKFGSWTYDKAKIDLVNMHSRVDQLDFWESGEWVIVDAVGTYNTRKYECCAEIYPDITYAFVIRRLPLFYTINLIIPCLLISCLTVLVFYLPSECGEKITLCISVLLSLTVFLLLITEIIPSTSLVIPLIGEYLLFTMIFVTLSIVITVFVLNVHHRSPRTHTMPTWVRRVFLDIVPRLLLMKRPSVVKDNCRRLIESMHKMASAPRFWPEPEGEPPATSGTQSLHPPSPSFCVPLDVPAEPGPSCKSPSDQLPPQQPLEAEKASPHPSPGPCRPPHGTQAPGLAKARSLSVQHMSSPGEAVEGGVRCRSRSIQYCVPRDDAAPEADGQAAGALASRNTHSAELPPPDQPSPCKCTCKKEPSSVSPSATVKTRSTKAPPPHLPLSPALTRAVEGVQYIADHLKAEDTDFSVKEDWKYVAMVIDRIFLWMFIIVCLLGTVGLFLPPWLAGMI
α4β2 nAChR, sequence (P17787 26-502): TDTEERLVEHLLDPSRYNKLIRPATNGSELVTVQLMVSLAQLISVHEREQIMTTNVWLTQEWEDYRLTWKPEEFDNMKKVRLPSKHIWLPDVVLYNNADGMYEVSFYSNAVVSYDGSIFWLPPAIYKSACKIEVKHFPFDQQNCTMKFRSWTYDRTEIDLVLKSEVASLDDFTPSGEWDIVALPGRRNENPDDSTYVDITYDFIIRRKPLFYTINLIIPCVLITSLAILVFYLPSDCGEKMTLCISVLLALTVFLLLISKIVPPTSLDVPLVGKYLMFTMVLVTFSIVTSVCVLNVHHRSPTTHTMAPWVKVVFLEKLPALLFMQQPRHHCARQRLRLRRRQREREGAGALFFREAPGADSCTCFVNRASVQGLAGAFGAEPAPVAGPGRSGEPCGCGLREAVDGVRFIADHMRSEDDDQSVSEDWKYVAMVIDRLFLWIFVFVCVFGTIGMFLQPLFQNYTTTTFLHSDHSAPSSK

As for `C=C1CCCC2=NCC(C)C(C)CC23CCC(C2C=C(C)C(=O)O2)=C(C)C3/C=C(\C)C(O)CC2CCC3(CCC4(OC(CCC4O)C1)O3)O2` (stereo not shown) [13,19-didesmethyl spirolide-C], the IC50 in data set [1] is 0.2 nM; at human α7 nAChR subtype [2], 0.25 nM; at α4β2 nAChR, 6.26 nM.
As for `C=C1CCCC2=NC[C@H](C)[C@@H](C)C[C@@]23CCC(C(=O)O)=C[C@@H]3[C@@H]2O[C@]3(C[C@H]4CCC[C@@]5(CC[C@@]6(O[C@@H](CC[C@@]6(C)O)C1)O5)O4)C[C@@H](C)[C@@H](O)[C@H]2O3` [Pinnatoxine-A], at human α7 nAChR subtype [3] (selectivity α7 vs muscle-type), the “antagonistic activity against human α7 nAChR, times more potent than towards muscle-type (α1)2β1γδ nAChR” value was determined as 50 times. The “antagonistic activity against human α7 nAChR, times more potent than against the human neuronal α4β2 nAChR subtype” value on human α7 nAChR subtype [3] (selectivity α7 vs α4β2) is listed as ~ 300 times. The IC50 in data set [1] is 5.53 nM; on human α7 nAChR subtype [2], 0.107 nM; on α4β2 nAChR, 30.4 nM.
Consider Gymnodimine-A, for which the IC50 in data set [1] is 2.8 nM; on α4β2 nAChR, 0.9 nM. In addition, the “cytotoxic, concentration region” value in data set [4] was “micromolar region”.
As to 20-methyl spirolide-G, the IC50 in data set [1] was 0.36 nM; at human α7 nAChR subtype [2], 0.48 nM; on α4β2 nAChR, 2.1 nM.
On to portimine B, for which the “cytotoxic activities, order of magnitude” value in the data set with cancer cell lines was ~10^-7 M.
As for `C=C1CCCC2=NC[C@H](C)[C@@H](C)C[C@@]23CCC([C@@H]2CCC(=O)O2)=C[C@@H]3[C@@H]2O[C@@]3(C[C@@H](C)C[C@H]2O3)C[C@@H]2O[C@]3(CC[C@@]4(O[C@@H](CC[C@@]4(C)O)C1)O3)C[C@H](C)[C@@H]2O` [pinnatoxin-F], the IC50 in the data set on P338 leukemia cell line was > 1000 nM.
On to `C=C1CCCC2=NCC(C)C(C)CC23CCC(C2C=C(C)C(=O)O2)=C(C)C3/C=C(/C)C(O)CC2CCC3(CCC4(OC(CCC4(C)O)C1)O3)O2` (stereo not shown) [13-desmethyl spirolide-C], for which the values for the IC50 (in data set [1]; on human α7 nAChR subtype [2]; at α4β2 nAChR) were 0.51 nM, 0.18 nM and 3.9 nM, respectively.
Consider `C=CC1=C[C@@H]2[C@@H]3O[C@]4(C[C@H]5CCC[C@@]6(CC[C@@]7(O[C@@H](CC[C@@]7(C)O)CC(=C)CCCC7=NC[C@H](C)[C@@H](C)C[C@@]72CC1)O6)O5)C[C@@H](C)[C@@H](O)[C@H]3O4` [Pinnatoxine-G], for which the IC50 was 3.82 nM in data set [1], 5.06 nM at human α7 nAChR subtype [2] and 4.9 nM on α4β2 nAChR.
Consider `C=C1CCCC2OC(CC3=CC4/C(C)=C/CC(C)CC(/C=C(\C)C(O)C5CC(O)C(O)C(CCC(O)/C=C/C(C)=C/CCC6=NCCC(C3)C64C)O5)OC(=O)CC3CC(O)C(O3)C(O)C1)CC(O)C2O` (stereo not shown) [Prorocentrolide], for which the IC50 was 186 nM in data set [1] and 1660 nM at human α7 nAChR subtype [2].
In the case of “28-O-palmitoyl ester of pinnatoxin-G [Palmitate PnTX-G]”, the IC50 in data set [1] is 0.97 nM.

(Values after patent EP4624457A1, “I[…] DERIVATIVES, I[…] NEURODEGENERATIVE DISEASES” (Centre National de la Recherche Scientifique, priority 2024, dated 2025).)
